Assay results from ChEMBL document CHEMBL5661983, “The selective anaplastic lymphoma receptor tyrosine kinase inhibitor ASP3026 induces tumor regression and prolongs survival in non-small cell lung cancer model mice” (Mol Cancer Ther, 2014).
Active and inactive are the calls of the source. The calls are words filed in the database; no cut-off is given here.

Legend:
[1] = Toxicity in human NCI-H2228 cell xenografted NOD.CB17-Prkdcscid/J mouse assessed as body weight loss at 50 mg/kg, iv administered once daily for 5 days; format: organism-based; settings: in vivo, 120 h, time 5 day
NCI-H2228 [2] = test: Antitumor activity against human NCI-H2228 cells xenografted in NOD.CB17-Prkdcscid/J mouse assessed as reduction in tumor volume at 50 mg/kg, iv administered daily for 5 days; format: functional, organism-based; settings: time 5.0 day
NCI-H2228 [3] = test: Antitumor activity against human NCI-H2228 cells xenografted in NOD.CB17-Prkdcscid/J mouse assessed as increase in tumor regression at 12 mg/kg, iv administered daily for 5 days; format: functional, organism-based; settings: time 5.0 day

| SMILES | Activity [1] | Activity (NCI-H2228 [2]) | Activity (NCI-H2228 [3]) |
| --- | --- | --- | --- |
| Nc1nc2[nH]cc(CCc3ccc(C(=O)N[C@@H](CCC(=O)O)C(=O)O)cc3)c2c(=O)[nH]1 [PEMETREXED] | Toxic | Active |  |
| CC(=O)O[C@H]1C(=O)[C@@]2(C)[C@H]([C@H](OC(=O)c3ccccc3)[C@]3(O)C[C@H](OC(=O)[C@H](O)[C@@H](NC(=O)c4ccccc4)c4ccccc4)C(C)=C1C3(C)C)[C@]1(OC(C)=O)CO[C@@H]1C[C@@H]2O |  |  | Active |
